Data on four molecules can be found in article PMC7898648, “Synthesis and Evaluation of Non‐Hydrolyzable Phospho‐Lysine Peptide Mimics” (Chemistry (Weinheim an Der Bergstrasse, Germany), 2020).

Data set [1] is described as follows: NMR titration for pKa determination of model peptides. The format is physicochemical. Conditions: 1 mM peptide in 40 mM KCl (H2O + 10 % D2O); for pKa2 (from 31P chemical shift vs pH, inflection point of sigmoidal fit): pH 2 to 11, 278 K, 600 MHz, 8a/8b: mono-protonated phosphoryl oxygen to di-anion, 8c: complete deprotonation of the phosphoryl oxygens. The method, then: Next, we aimed to evaluate the charge distribution of peptides 8 a–c at physiological pH. […] An elegant technique for the pK a determination is NMR titration since this non‐invasive analytical technique enables accurate measurements at desired temperatures at a given pH. Our experimental set up was inspired by the NMR titration conducted by Gamcsik et al. on phosphoramidic acid and other phosphoramides. ^[23] Samples were prepared at a 1 mM concentration in 40 mM KCl (water + 10 % deuterium oxide) and kept at low temperature to minimize P−N bond hydrolysis for 8 c. The pH of each sample was adjusted before measurement and checked again afterwards. Proton (^1H), phosphorous (^31P) 1D as well as ^1H‐^31P‐heteronuclear multiple bond […] (HMBC) NMR spectra were recorded from pH 2 to pH 11 on a 600 MHz (^1H frequency) spectrometer at 278 K and subsequently used for calculations of pK a values (Figure 2 A, exemplified for 8 a, see Figure S3 for 8 b). In order to do so, the chemical shift of ^31P was plotted against the pH values and resulting curves fitted with sigmoidal functions wherein pK a values were obtained from the inflection points (Figure 2 B). We further evaluated the data by plotting and fitting of the ^1H chemical shifts – ζ‐protons for phosphonate 8 a and ϵ‐protons for phosphate 8 b and phosphoramidate 8 c (Figure S4).
Figure 2 A. NMR titration experiments of peptide 8 a. Conditions: NMR spectra of a solution containing 1 mM peptide in 40 mM KCl (H2O+10 % D2O) were recorded at distinct pH values on a 600 MHz (^1H frequency) spectrometer at 278 K. Shown are the overlay of 1D‐^31P spectra at different pH values and extracted correlation signals between ϵ‐protons and phosphorous from ^1H,^31P‐HMBC experiments. B. Graphical visualization of ^31P NMR measurements for phosphonate 8 a (red), phosphate 8 b (blue) and phosphoramidate 8 c (black).

Data set [2] deals with T1, alkaline phosphatase (ALP) (Bos taurus, UniProt P19111).
T1 construct: purchased Sigma-Aldrich (aliquots provided by Prof. Fiedler)
T1 sequence (P19111 20-506 limits assumed): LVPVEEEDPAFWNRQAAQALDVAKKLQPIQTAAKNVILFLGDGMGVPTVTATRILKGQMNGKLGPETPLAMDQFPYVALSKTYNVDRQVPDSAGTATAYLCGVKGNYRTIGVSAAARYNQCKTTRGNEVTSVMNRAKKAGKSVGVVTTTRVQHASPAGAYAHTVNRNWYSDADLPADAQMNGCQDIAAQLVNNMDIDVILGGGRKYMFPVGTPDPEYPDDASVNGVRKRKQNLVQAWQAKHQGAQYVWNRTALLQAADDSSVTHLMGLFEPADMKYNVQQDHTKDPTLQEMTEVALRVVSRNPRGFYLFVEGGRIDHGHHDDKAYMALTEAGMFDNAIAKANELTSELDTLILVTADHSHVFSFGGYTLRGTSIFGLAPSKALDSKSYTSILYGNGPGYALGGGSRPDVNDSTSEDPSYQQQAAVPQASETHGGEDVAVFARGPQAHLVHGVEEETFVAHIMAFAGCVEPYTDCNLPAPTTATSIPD
The experiment in a line: Enzymatic stability against alkaline phosphatase (released inorganic phosphate, EnzCheck kit). The format is in vitro ADME. The conditions noted are these: 1 mM substrate, 50 mM Tris, 1 mM MgCl2, 1 mM ZnCl2, pH 8.2, 30 °C, 0.05 U ALP, 2 h; photometric read-out of released Pi at 360 nm (SI: 100 μM, pH 7.8, 90 min); blank without enzyme subtracted. The procedure:
With the three peptides 8 a–c in hand, we tested their enzymatic stability against the promiscuous alkaline phosphatase (ALP). The substrates 8 a–c were tested for stability towards ALP under optimized conditions. Briefly, 1 mM substrate was dissolved in 50 mM Tris, 1 mM MgCl2, 1 mM ZnCl2, pH 8.2, at 30 °C and was incubated with 0.05 U ALP for 2 h. and the amount of released inorganic phosphate (Pi) was determined via photometric read‐out. […] Furthermore, treatment of 8 b with ALP yielded in a Pi release, which indicated susceptibility of the phosphate analogue towards phosphatases.
Treatment of peptides 8a-c with alkaline phosphatase (ALP). […]
enzymatically hydrolyzed substrate, calculated by subtraction of detected inorganic phosphate (Pi) in blank reactions (without enzyme) from the reactions with enzyme ad de d . He r e i n , w e observed dephosphorylation for both peptides 8b and 8c, which indicated susceptibility of the phosphate analogue towards phosphatases. […]
Reactions were run for 90 min in total, UV -absorbance was measured every 10 min. The enzymatic hydrolysis yield [E] was determined by substraction of [BG]w/oBL from […]
UV/Vis spectra and absorbance values were determined either on a V -630 spectrophotometer at r.t. or a V-550 UV/Vis spectrophotometer equipped with an ETC-505T temperature controller at 20 °C (both Jasco, Tokyo, Japan). […]

The conditions of data set [3]: potentiometrically detected; cited from earlier work.

The structures appear in SMILES notation.

Take `CC(=O)N[C@@H](Cc1ccc(O)cc1)C(=O)N[C@@H](CCSCCP(=O)(O)O)C(=O)NCC(N)=O` [8a]: the “pKa2 (from 31P chemical shift vs pH, inflection point of sigmoidal fit)” value in data set [1] is 7.08±0.03. Take `CC(=O)N[C@@H](Cc1ccc(O)cc1)C(=O)N[C@@H](CCCCOP(=O)(O)O)C(=O)NCC(N)=O` [8b]: in data set [1], the “pKa2 (from 31P chemical shift vs pH, inflection point of sigmoidal fit)” value was found to be 6.54±0.13. Also, the “stability towards ALP (enzymatic hydrolysis, Pi release)” value in data set [2] was “dephosphorylation”. On to `CC(=O)N[C@@H](Cc1ccc(O)cc1)C(=O)N[C@@H](CCCCNP(=O)(O)O)C(=O)NCC(N)=O` [8c, ^AcTyrpLysGly^CONH2], for which, in data set [1], the “pKa2 (from 31P chemical shift vs pH, inflection point of sigmoidal fit)” value was found to be 2.88±0.30. The “pKa3 (deprotonation of the amine)” value in data set [1] (31P shift vs pH, 278 K) came out at 9.64±0.07. Turning to `CCCCNP(=O)(O)O` [N‐(n‐butyl)phosphoramidate], in data set [3], the “pKa for the protonation on nitrogen” value is 9.9 and the “pKa for the protonation on one phosphoryl oxygen” value was 2.9.
